1 molecule from article PMC6272931, “Acacetin Protects Mice from Staphylococcus aureus Bloodstream Infection by Inhibiting the Activity of Sortase A” (Molecules, 2016) can be followed below.

In the test the target is T1, Sortase A (SrtA) (Staphylococcus aureus, UniProt Q2FV99).
T1 construct: SrtAΔN59
In words: FRET peptide cleavage assay (Dabcyl-QALPETGEE-Edans) with purified SrtAΔN59, […] CaCl2 in the buffer. The class given is biochemical.

T1 sequence (Q2FV99 60-206): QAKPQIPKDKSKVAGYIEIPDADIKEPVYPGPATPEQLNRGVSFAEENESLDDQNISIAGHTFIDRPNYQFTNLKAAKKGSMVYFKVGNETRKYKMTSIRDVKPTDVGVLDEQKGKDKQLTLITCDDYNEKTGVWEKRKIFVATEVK

As to `COc1ccc(-c2cc(=O)c3c(O)cc(O)cc3o2)cc1` [acacetin, 5,7-dihydroxy-2-(4-methoxyphenyl)chromen-4-one], the concentration for half-maximal inhibition (IC50) amounted to 128 µM.

What is called IC50 is the concentration needed to halve the response being measured. Read a low IC50 as greater potency.
